Source: the supplement of paper PMC10307832

Key:
Assay in all cases: relative viability (nuclei count vs DMSO), 5 days (fraction); higher = more cells survive
Idelalisib + Palbociclib = compound: CC[C@H](Nc1ncnc2[nH]cnc12)c1nc2cccc(F)c2c(=O)n1-c1ccccc1 [Idelalisib] + CC(=O)c1c(C)c2cnc(Nc3ccc(N4CCNCC4)cn3)nc2n(C2CCCC2)c1=O [Palbociclib] (partner 0.5 µM)
Summary of the method: (§1)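 For relative viability, nuclei counts in treated wells were divided by those in vehicle wells. Lung cancer cell lines had been pin-tool dosed in 1536-well plates the day after seeding and cultured for 5 days, then fixed and stained in one step (final 0.05% Triton X-100, 1% formaldehyde, 1 ug/ml Hoechst) and imaged at 4×. Doses were one drug alone or a fixed anchor-drug dose plus five library-drug doses (not always all listed) in √10 steps, and values are duplicate-plate medians.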

Idelalisib + Foretinib = compound: CC[C@H](Nc1ncnc2[nH]cnc12)c1nc2cccc(F)c2c(=O)n1-c1ccccc1 [Idelalisib] + COc1cc2c(Oc3ccc(NC(=O)C4(C(=O)Nc5ccc(F)cc5)CC4)cc3F)ccnc2cc1OCCCN1CCOCC1 [Foretinib] (partner 0.25 µM)
Summary of the method: as §1

Pemetrexed + AZD7762 = compound: Nc1nc2[nH]cc(CCc3ccc(C(=O)N[C@@H](CCC(=O)O)C(=O)O)cc3)c2c(=O)[nH]1 [Pemetrexed] + NC(=O)Nc1cc(-c2cccc(F)c2)sc1C(=O)N[C@H]1CCCNC1 [AZD7762] (partner 0.2 µM)
Summary of the method: as §1

Pemetrexed + Crizotinib = compound: Nc1nc2[nH]cc(CCc3ccc(C(=O)N[C@@H](CCC(=O)O)C(=O)O)cc3)c2c(=O)[nH]1 [Pemetrexed] + C[C@@H](Oc1cc(-c2cnn(C3CCNCC3)c2)cnc1N)c1c(Cl)ccc(F)c1Cl [Crizotinib] (partner 1 µM)
Summary of the method: as §1

Row | Cell Line | relative viability (Idelalisib + Palbociclib; first compound 0.04 µM) | relative viability (Idelalisib + Palbociclib; first compound 0.1265 µM) | relative viability (Idelalisib + Palbociclib; first compound 0.4 µM) | relative viability (Idelalisib + Palbociclib; first compound 1.265 µM) | relative viability (Idelalisib + Palbociclib; first compound 4 µM) | relative viability (Idelalisib + Foretinib; first compound 0.04 µM) | relative viability (Idelalisib + Foretinib; first compound 0.1265 µM) | relative viability (Idelalisib + Foretinib; first compound 1.265 µM) | relative viability (Idelalisib + Foretinib; first compound 4 µM) | relative viability (Pemetrexed + AZD7762; first compound 0.002 µM) | relative viability (Pemetrexed + AZD7762; first compound 0.006325 µM) | relative viability (Pemetrexed + AZD7762; first compound 0.02 µM) | relative viability (Pemetrexed + AZD7762; first compound 0.06325 µM) | relative viability (Pemetrexed + AZD7762; first compound 0.2 µM) | relative viability (Pemetrexed + Crizotinib; first compound 0.006325 µM) | relative viability (Pemetrexed + Crizotinib; first compound 0.02 µM) | relative viability (Pemetrexed + Crizotinib; first compound 0.06325 µM) | relative viability (Pemetrexed + Crizotinib; first compound 0.2 µM) | relative viability (Idelalisib + Foretinib; first compound 0.4 µM) | relative viability (Pemetrexed + Crizotinib; first compound 0.002 µM)
1 | NCI-H647 | 0.393 | 0.319 | 0.25 | 0.242 | 0.219 | 1.18 | 1.35 | 0.895 | 0.746 | 0.488 | 0.626 | 0.435 | 0.333 | 0.143 | 0.921 | 1.14 | 0.785 | 0.32 |  | 
2 | NCI-H650 | 0.327 | 0.314 | 0.309 | 0.312 | 0.296 | 1.05 | 1.05 | 1.05 | 1 | 0.966 | 0.939 |  | 0.83 | 0.931 | 0.725 | 0.66 | 0.762 | 0.696 | 0.948 | 0.698
3 | NCI-H727 | 0.7 | 0.566 | 0.648 | 0.786 | 0.619 | 1.1 | 0.968 | 0.92 | 0.691 | 0.773 | 0.573 | 0.763 | 0.523 | 0.653 | 0.782 | 0.877 | 0.986 | 0.732 | 0.629 | 0.56
4 | NCI-H838 | 0.207 | 0.262 | 0.186 | 0.213 | 0.171 | 1.08 | 0.947 | 0.931 | 0.821 | 0.934 | 0.862 | 0.757 | 0.635 | 0.579 | 0.814 | 1.03 | 0.935 | 0.415 | 0.912 | 0.83
5 | NCI-H1355 | 0.415 | 0.407 | 0.333 | 0.364 | 0.312 | 0.992 | 0.946 | 0.868 | 0.823 | 0.732 | 0.838 | 0.771 | 0.794 | 0.808 | 0.964 | 1.13 | 1.06 | 1.07 | 0.907 | 0.933
6 | NCI-H1437 | 0.334 | 0.413 | 0.318 | 0.361 | 0.325 | 1.24 | 1.32 | 1.36 | 1.42 | 1.03 | 1.1 | 1.06 | 0.323 | 0.231 | 0.854 | 0.965 | 0.586 | 0.281 | 1.24 | 0.948
7 | NCI-H1651 | 0.518 | 0.524 | 0.489 | 0.522 | 0.442 | 0.761 | 0.799 | 0.735 | 0.561 | 0.412 | 0.452 | 0.51 | 0.44 | 0.455 | 0.792 | 0.92 | 0.864 | 0.851 | 0.702 | 0.879
8 | NCI-H1666 | 0.615 | 0.6 | 0.645 | 0.689 | 0.645 | 0.825 | 1.07 | 1.01 | 0.947 | 0.79 | 0.843 | 0.835 | 0.72 | 0.456 | 0.9 | 0.986 | 0.865 | 0.635 | 0.961 | 1.08
9 | NCI-H1734 | 0.38 | 0.397 | 0.301 | 0.303 | 0.31 | 0.911 | 0.911 | 0.957 | 0.642 | 0.415 | 0.584 | 0.649 | 0.508 | 0.332 | 0.647 | 0.745 | 0.723 | 0.686 | 0.836 | 0.721
10 | NCI-H1755 | 0.462 | 0.422 | 0.444 | 0.437 | 0.465 | 0.951 | 0.915 | 0.843 | 0.9 | 0.42 | 0.453 | 0.483 | 0.393 | 0.295 | 0.814 | 0.897 | 0.973 | 0.78 | 0.889 | 0.787
11 | NCI-H1915 | 0.603 | 0.482 | 0.5 | 0.577 | 0.495 | 1.15 | 1.1 | 1.19 | 1.09 | 0.6 | 0.638 | 0.751 | 0.599 | 0.652 | 0.834 | 0.936 | 0.877 | 0.914 | 1.09 | 0.876
12 | NCI-H1944 | 0.36 | 0.315 | 0.297 | 0.292 | 0.283 | 1 | 0.877 | 0.804 | 0.759 | 0.48 | 0.432 | 0.582 | 0.506 | 0.531 | 1.02 | 1.19 | 1.11 | 1 | 0.752 | 0.911
13 | NCI-H1975 | 0.586 | 0.653 | 0.429 | 0.583 | 0.406 | 0.934 | 0.931 | 0.86 | 0.867 |  | 0.819 | 0.818 | 0.583 | 0.35 | 0.879 | 0.987 | 0.806 | 0.438 | 0.885 | 
14 | NCI-H1993 | 0.642 | 0.743 | 0.49 | 0.523 | 0.491 | 0.967 | 0.843 | 0.837 | 0.737 | 0.546 | 0.825 | 0.779 | 0.563 | 0.481 | 0.878 | 0.894 | 0.879 | 0.982 | 0.649 | 0.877
15 | NCI-H2085 | 0.466 | 0.445 | 0.483 | 0.422 | 0.464 | 0.971 | 0.913 | 0.777 | 0.556 | 0.921 | 0.936 | 1.04 | 0.959 | 0.916 | 0.869 | 0.752 | 0.896 | 0.924 | 0.688 | 0.96
16 | NCI-H2087 | 0.216 | 0.173 | 0.15 | 0.223 | 0.169 | 1.28 | 1.04 | 0.908 | 0.579 | 1.2 | 1.22 | 1.44 | 1.3 | 0.799 | 0.818 | 0.912 | 0.85 | 0.786 | 0.842 | 0.945
17 | NCI-H2126 | 0.364 | 0.369 | 0.366 | 0.327 | 0.358 | 1.21 | 1.26 | 1.33 | 1.09 | 0.904 | 0.954 | 1.06 | 1.01 | 0.879 | 0.96 | 1.02 | 1.03 | 0.965 | 1.06 | 0.967
18 | NCI-H2170 | 0.398 | 0.434 | 0.384 | 0.347 | 0.336 | 0.952 | 1.05 | 1.03 | 0.947 | 0.873 | 0.916 | 0.864 | 0.774 | 0.357 | 1.03 | 1.1 | 1.2 | 1.09 | 0.947 | 1.3
19 | NCI-H2347 | 0.48 | 0.453 | 0.445 | 0.42 | 0.286 | 0.845 | 0.701 | 1.12 | 0.664 | 0.61 | 0.831 | 0.914 | 0.517 | 0.428 | 0.616 | 0.694 | 0.577 | 0.477 | 0.818 | 0.689
20 | NCI-H2405 | 0.539 | 0.484 | 0.494 | 0.512 | 0.486 | 1.11 | 1.06 | 1.01 | 0.956 | 0.781 | 0.833 | 0.843 | 0.689 | 0.629 | 0.785 | 0.869 | 0.824 | 0.825 | 0.952 | 0.868
21 | NCI-H3122 | 0.172 | 0.195 | 0.185 | 0.214 | 0.203 | 0.963 | 0.939 | 0.982 | 0.836 | 1.04 | 0.863 | 0.966 | 0.4 | 0.276 | 0.261 | 0.261 | 0.244 | 0.233 | 1 | 0.275
22 | PC-3 [JPC-3] | 0.557 | 0.525 | 0.584 | 0.489 | 0.539 | 1.01 | 0.961 | 1.06 | 0.957 | 0.448 | 0.968 | 1 | 0.808 | 0.861 | 0.985 | 0.926 | 1.11 | 0.935 | 1.01 | 0.935
23 | PC-14 | 0.539 | 0.511 | 0.439 | 0.561 | 0.415 | 1.05 | 0.988 | 0.995 | 0.968 | 0.297 | 0.371 | 0.35 | 0.218 | 0.114 | 0.888 | 0.838 | 0.709 | 0.207 | 0.933 | 0.86
24 | RERF-LC-KJ | 1.12 | 1.06 | 1.02 | 0.965 | 0.759 | 0.879 | 0.953 | 0.871 | 0.768 | 0.837 | 1.49 | 0.919 | 1.04 | 0.618 | 0.852 | 0.878 | 0.832 | 0.805 | 0.809 | 0.89
